Values joined by “and” are separate entries in the source; they are usually repeats but may differ in a detail not shown here. Equal entries are not always repeated.
System: CN0375-F725-PDC KRAS spheroid viability
Experiment: Anticancer human tumor CN0375-F725-PDC patient-derived colon carcinoma cell line growth inhibition [KRAS2]
Settings: spheroids with HUVEC and MSC; for viability, T/C: stronger effect = lower value; for IC50: curve of first compound
In short: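 Combination screen of spheroid viability in tumor-cell co-cultures with endothelial (HUVEC) and mesenchymal stem cell stroma. Each agent was tested in half-log dilutions, topping at clinical Cmax or at 10 microM without a known Cmax.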
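Also: spheroids exposed to agents for 7 days.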

## CC1(C)CCC(CN2CCN(c3ccc(C(=O)NS(=O)(=O)c4ccc(NCC5CCOCC5)c([N+](=O)[O-])c4)c(Oc4cnc5[nH]ccc5c4)c3)CC2)=C(c2ccc(Cl)cc2)C1
Compound 0.0316 µM
  viability, T/C: 106% [middle of 5 runs]
Compound 0.1 µM
  viability, T/C: 102% [middle of 5 runs]
Compound 0.316 µM
  viability, T/C: 106% (3×) and 95.8% and 104%
Compound 1 µM
  viability, T/C: 104% [middle of 5 runs]
Compound 3.16 µM
  viability, T/C: 67.7% [middle of 5 runs]

## CC1(C)CCC(CN2CCN(c3ccc(C(=O)NS(=O)(=O)c4ccc(NCC5CCOCC5)c([N+](=O)[O-])c4)c(Oc4cnc5[nH]ccc5c4)c3)CC2)=C(c2ccc(Cl)cc2)C1 + C=CC(=O)N1CCN(c2nc(OCC3CCCN3C)nc3c2CCN(c2cccc4cccc(C)c24)C3)CC1CC#N
Second compound 0.0316 µM
  IC50: 3.98 µM
Second compound 0.1 µM
  IC50: 4.63 µM
Second compound 0.316 µM
  IC50: 2.67 µM
Second compound 1 µM
  IC50: 2.01 µM
Second compound 3.16 µM
  IC50: < 0.0316 µM
Second compound 0.0316 µM, first compound 0.0316 µM
  viability, T/C: 108%
Second compound 0.0316 µM, first compound 0.1 µM
  viability, T/C: 102%
Second compound 0.0316 µM, first compound 0.316 µM
  viability, T/C: 101%
Second compound 0.0316 µM, first compound 1 µM
  viability, T/C: 107%
Second compound 0.0316 µM, first compound 3.16 µM
  viability, T/C: 58.5%
Second compound 0.0316 µM, first compound 10 µM
  viability, T/C: 15.9%
Second compound 0.1 µM, first compound 0.0316 µM
  viability, T/C: 104%
Second compound 0.1 µM, first compound 0.1 µM
  viability, T/C: 104%
Second compound 0.1 µM, first compound 0.316 µM
  viability, T/C: 102%
Second compound 0.1 µM, first compound 1 µM
  viability, T/C: 99%
Second compound 0.1 µM, first compound 3.16 µM
  viability, T/C: 66.3%
Second compound 0.1 µM, first compound 10 µM
  viability, T/C: 17%
Second compound 0.316 µM, first compound 0.0316 µM
  viability, T/C: 101%
Second compound 0.316 µM, first compound 0.1 µM
  viability, T/C: 108%
Second compound 0.316 µM, first compound 0.316 µM
  viability, T/C: 101%
Second compound 0.316 µM, first compound 1 µM
  viability, T/C: 96.6%
Second compound 0.316 µM, first compound 3.16 µM
  viability, T/C: 42%
Second compound 0.316 µM, first compound 10 µM
  viability, T/C: 14.3%
Second compound 1 µM, first compound 0.0316 µM
  viability, T/C: 96.6%
Second compound 1 µM, first compound 0.1 µM
  viability, T/C: 97.2%
Second compound 1 µM, first compound 0.316 µM
  viability, T/C: 100%
Second compound 1 µM, first compound 1 µM
  viability, T/C: 86.3%
Second compound 1 µM, first compound 3.16 µM
  viability, T/C: 26.2%
Second compound 1 µM, first compound 10 µM
  viability, T/C: 5.23%
Second compound 3.16 µM, first compound 0.0316 µM
  viability, T/C: 11%
Second compound 3.16 µM, first compound 0.1 µM
  viability, T/C: 12%
Second compound 3.16 µM, first compound 0.316 µM
  viability, T/C: 3.38%
Second compound 3.16 µM, first compound 1 µM
  viability, T/C: 3.27%
Second compound 3.16 µM, first compound 3.16 µM
  viability, T/C: 0.38%
Second compound 3.16 µM, first compound 10 µM
  viability, T/C: 0.17%

Reference: PubChem BioAssay AID1963860 (Molecular Pharmacology Branch, DTP, NCI, 2024)
